# Test results from PubChem BioAssay AID1845195 (Molecular Pharmacology Branch, DTP, NCI, 2023).
# Values joined by “and” are separate entries in the source; they are usually repeats but may differ in a detail not shown here. Equal entries are not always repeated.
# Tested on: 156681-154-R-J1 tumor spheroid viability
# Assay: Anticancer human tumor 156681-154-R-J1 patient-derived melanoma cell line growth inhibition
# Conditions: spheroids with HUVEC and MSC; for viability, T/C: stronger effect = lower value
# Outline: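 Single agents and combinations were tested on spheroids built from tumor cells plus HUVEC and hMSC, at half-log dilutions starting at or near clinical Cmax, else 10 microM; final DMSO 0.25% (v/v).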
# 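Also: spheroids exposed to compounds for 7 days before readout.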
# 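For viability, T/C in this document: percent of vehicle control viability where 100% = DMSO-treated spheroids.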
smiles,measurement,setting,value
COc1cc(C)[nH]c(=O)c1CN1CCc2c(Cl)cc(C(OC)C3COC3)c(Cl)c2C1=O (stereo unspecified) + COc1cc2c(cc1O)CCNC21CSC2c3c(OC(C)=O)c(C)c4c(c3C(COC1=O)N1C(O)C3Cc5cc(C)c(OC)c(O)c5C(C21)N3C)OCO4,IC50,"curve of first compound, second compound 30 pM",> 10 µM
same,IC50,"curve of first compound, second compound 94.9 pM",> 10 µM
same,IC50,"curve of first compound, second compound 0.0003 µM",> 10 µM
same,IC50,"curve of first compound, second compound 0.000949 µM",< 0.0316 µM
same,IC50,"curve of first compound, second compound 0.003 µM",< 0.0316 µM
same,"viability, T/C","second compound 30 pM, first compound 0.0316 µM",88.8%
same,"viability, T/C","second compound 30 pM, first compound 0.1 µM",112%
same,"viability, T/C","second compound 30 pM, first compound 0.316 µM",94.9%
same,"viability, T/C","second compound 30 pM, first compound 1 µM",93.3%
same,"viability, T/C","second compound 30 pM, first compound 3.16 µM",92.6%
same,"viability, T/C","second compound 30 pM, first compound 10 µM",120%
same,"viability, T/C","second compound 94.9 pM, first compound 0.0316 µM",90.9%
same,"viability, T/C","second compound 94.9 pM, first compound 0.1 µM",98.3%
same,"viability, T/C","second compound 94.9 pM, first compound 0.316 µM",106%
same,"viability, T/C","second compound 94.9 pM, first compound 1 µM",116%
same,"viability, T/C","second compound 94.9 pM, first compound 3.16 µM",106%
same,"viability, T/C","second compound 94.9 pM, first compound 10 µM",98.1%
same,"viability, T/C","second compound 0.0003 µM, first compound 0.0316 µM",77.9%
same,"viability, T/C","second compound 0.0003 µM, first compound 0.1 µM",82.3%
same,"viability, T/C","second compound 0.0003 µM, first compound 0.316 µM",87.7%
same,"viability, T/C","second compound 0.0003 µM, first compound 1 µM",80.1%
same,"viability, T/C","second compound 0.0003 µM, first compound 3.16 µM",73.3%
same,"viability, T/C","second compound 0.0003 µM, first compound 10 µM",67.2%
same,"viability, T/C","second compound 0.000949 µM, first compound 0.0316 µM",6.81%
same,"viability, T/C","second compound 0.000949 µM, first compound 0.1 µM",5.99%
same,"viability, T/C","second compound 0.000949 µM, first compound 0.316 µM",5.88%
same,"viability, T/C","second compound 0.000949 µM, first compound 1 µM",5.47%
same,"viability, T/C","second compound 0.000949 µM, first compound 3.16 µM",3.42%
same,"viability, T/C","second compound 0.000949 µM, first compound 10 µM",2.93%
same,"viability, T/C","second compound 0.003 µM, first compound 0.0316 µM",0.33%
same,"viability, T/C","second compound 0.003 µM, first compound 0.1 µM",0.34%
same,"viability, T/C","second compound 0.003 µM, first compound 0.316 µM",0.33%
same,"viability, T/C","second compound 0.003 µM, first compound 1 µM",0.41%
same,"viability, T/C","second compound 0.003 µM, first compound 3.16 µM",0.38%
same,"viability, T/C","second compound 0.003 µM, first compound 10 µM",0.48%
Cn1ncnc1[C@H]1c2n[nH]c(=O)c3cc(F)cc(c23)N[C@@H]1c1ccc(F)cc1,"viability, T/C",compound 0.00949 µM,69.9% and 99.2% and 102%
same,"viability, T/C",compound 0.03 µM,71.1% and 90.5% and 84.6%
same,"viability, T/C",compound 0.0949 µM,79.2% and 71.3% and 86.4%
same,"viability, T/C",compound 0.3 µM,71.5% and 69% and 85.9%
same,"viability, T/C",compound 0.949 µM,67.1% and 59.8% and 73.4%
same,"viability, T/C",compound 3 µM,8.93% and 21.2% and 16.4%
same,IC50,curve of compound,1.33 µM and 0.993 µM and 1.5 µM
Cc1cc(C)c(CNC(=O)c2cc(-c3ccc(CN4CCOCC4)cc3)cc3c2cnn3C2CCCC2)c(=O)[nH]1,"viability, T/C",compound 0.0316 µM,80.8% and 92.1% and 108%
same,"viability, T/C",compound 0.1 µM,101% and 82.4% and 85.2%
same,"viability, T/C",compound 0.316 µM,85.4% and 99.5% and 97.3%
same,"viability, T/C",compound 1 µM,97.1% and 73% and 93.2%
same,"viability, T/C",compound 3.16 µM,90.4% and 89.8% and 92.5%
same,"viability, T/C",compound 10 µM,90% and 87.1% and 91.1%
same,IC50,curve of compound,> 10 µM
COc1ccc([C@@H](O)c2cc(-c3ncnc4cc(N5CCOCC5)ccc34)c(F)cc2Cl)nn1,"viability, T/C",compound 0.0316 µM,95.2% and 80.1% and 80.3%
same,"viability, T/C",compound 0.1 µM,99.7% and 89.8% and 88%
same,"viability, T/C",compound 0.316 µM,88% and 84.6% and 86.1%
same,"viability, T/C",compound 1 µM,71.3% and 63.9% and 76.9%
same,"viability, T/C",compound 3.16 µM,59.8% and 60.9% and 55.3%
same,"viability, T/C",compound 10 µM,46.2% and 62.8% and 43.4%
same,IC50,curve of compound,7.33 µM and > 10 µM and 5.22 µM
CC(C)n1c(=O)n(C)c2cnc3cc(F)c(-c4ccc(OCCCN5CCCCC5)nc4)cc3c21 + Cn1nnc2c(C(N)=O)ncn2c1=O,IC50,"curve of first compound, second compound 1 µM",> 10 µM
same,IC50,"curve of first compound, second compound 3.16 µM",> 10 µM
same,IC50,"curve of first compound, second compound 10 µM",> 10 µM
same,IC50,"curve of first compound, second compound 31.6 µM",< 0.0316 µM
same,IC50,"curve of first compound, second compound 100 µM",< 0.0316 µM
same,"viability, T/C","second compound 1 µM, first compound 0.0316 µM",116%
same,"viability, T/C","second compound 1 µM, first compound 0.1 µM",122%
same,"viability, T/C","second compound 1 µM, first compound 0.316 µM",110%
same,"viability, T/C","second compound 1 µM, first compound 1 µM",104%
same,"viability, T/C","second compound 1 µM, first compound 3.16 µM",108%
same,"viability, T/C","second compound 1 µM, first compound 10 µM",95.1%
same,"viability, T/C","second compound 3.16 µM, first compound 0.0316 µM",85.2%
same,"viability, T/C","second compound 3.16 µM, first compound 0.1 µM",83%
same,"viability, T/C","second compound 3.16 µM, first compound 0.316 µM",111%
same,"viability, T/C","second compound 3.16 µM, first compound 1 µM",123%
same,"viability, T/C","second compound 3.16 µM, first compound 3.16 µM",98.9%
same,"viability, T/C","second compound 3.16 µM, first compound 10 µM",71.4%
same,"viability, T/C","second compound 10 µM, first compound 0.0316 µM",78.5%
same,"viability, T/C","second compound 10 µM, first compound 0.1 µM",63.5%
same,"viability, T/C","second compound 10 µM, first compound 0.316 µM",70.8%
same,"viability, T/C","second compound 10 µM, first compound 1 µM",72.4%
same,"viability, T/C","second compound 10 µM, first compound 3.16 µM",75.5%
same,"viability, T/C","second compound 10 µM, first compound 10 µM",64.1%
same,"viability, T/C","second compound 31.6 µM, first compound 0.0316 µM",47.2%
same,"viability, T/C","second compound 31.6 µM, first compound 0.1 µM",54.5%
same,"viability, T/C","second compound 31.6 µM, first compound 0.316 µM",53%
same,"viability, T/C","second compound 31.6 µM, first compound 1 µM",48.3%
same,"viability, T/C","second compound 31.6 µM, first compound 3.16 µM",52%
same,"viability, T/C","second compound 31.6 µM, first compound 10 µM",55.8%
same,"viability, T/C","second compound 100 µM, first compound 0.0316 µM",51.9%
same,"viability, T/C","second compound 100 µM, first compound 0.1 µM",43.3%
same,"viability, T/C","second compound 100 µM, first compound 0.316 µM",46.8%
same,"viability, T/C","second compound 100 µM, first compound 1 µM",48.2%
same,"viability, T/C","second compound 100 µM, first compound 3.16 µM",49.5%
same,"viability, T/C","second compound 100 µM, first compound 10 µM",43.4%
